Earlier results as cited in paper PMC4061246 (Biochimica et biophysica acta, 2014).

Conditions: reported

aqueous solubility [µg/mL]	Compound
< 1	Cc1cc(C#N)cc(C)c1Oc1nc(Nc2ccc(C#N)cc2)nc(N)c1Br [etravirine]
0.02 to 0.24	Cc1cc(/C=C/C#N)cc(C)c1Nc1ccnc(Nc2ccc(C#N)cc2)n1 [rilpivirine]
